Assay results taken from EP4700040A1, “PEPTIDE AND LUMINESCENT COMPLEX CONTAINING SAME” (Shenzhen Loggene Life Science & Technology Co., Ltd., priority 2023, dated 2024).

What was measured:
PCT [1] = test: Complementary activity of small subunits mutated at conserved positions, Furimazine substrate (Example 6); assay type: biochemical, human; details: MBP-PCT 3.3 ng/ml, supernatant
Method: Detection Methods: • (1) The concentration of large subunit-rSCFV5 fusion protein was diluted to 12.5 nM, and 15 µl was added per well; • (2) MBP-PCT fusion protein was diluted to 3.3 ng/ml with PBSAD, and 10 µl was added per well; • (3) HB2151 strain containing plasmids with different small subunit sequences were induced by IPTG at 30°C overnight, then treated with polymyxin B for 1.5h, and centrifuged to collect the supernatant, and 2.5µl supernatant was added per well; • (4) The above three components were slightly mixed, incubated at 37°C for 7 min, and Obuffer 6.37-3 containing Furimazine at a concentration of 25 µM was added, […], the luminescence signal value was detected using a bioluminescence detector; and • (5) Clones with RLU higher than 10,000 were picked. The substrate was replaced with CTZ-h substrate for retesting (Obuffer 6.37-3 containing CTZ-h at a concentration of 25 µM was added, and after 60 s, the luminescence signal value was detected using a bioluminescence detector), and a PBSAD control was added to test the signal-to-noise ratio.
In order to further determine whether these three conserved amino acid sequences were changed, this example constructed a random mutation library of these three positions, with a theoretical diversity of 8,000 and a library capacity of 10^6, and 2,000 single clones were picked. The method of protein induction and expression was the same as that in Example 1. The complementary activity was tested in the same manner as that in Example 4, but the signal-to-noise ratio was not retested with CTZ-h. Clones with different activity were randomly picked for sequencing.

[2] = tested on: human interleukin 6 (human IL6); test: Luciferase dual-antibody complementary activation assay for human IL6 (Example 7); assay type: biochemical; details: estimated by ((mean+3SD)-RLU0.5)/(RLU5-RLU0.5)*4.5+0.5
Text: Expression and purification of human IL6 recombinant protein: An expression vector of human IL6 (UniProtKB ID: P05231, AA29~212) with six histidine-tagged (C-terminal) fusion proteins (SEQ ID NO: 90) was constructed. The fusion protein was recombinantly expressed in E. coli, and purified with nickel column. The protein purity was detected by denaturing SDS-polyacrylamide gel electrophoresis, and the protein concentration was detected by nucleic acid-protein quantification instrument.
Expression and purification of a fusion protein of the small and large subunits with IL6 antibody: prokaryotic expression plasmids of the fusion protein RB073-449-1 (SEQ ID NO: 91) of the small subunit peptide RB073 with human IL6 SCFV antibody 449-1, and the fusion protein OL-453 (SEQ ID NO: 92) of the large subunit with human IL6 SCFV antibody 453 were constructed. The fusion proteins were recombinantly expressed in E. coli, and purified with nickel column. The protein purity was detected by denaturing SDS-polyacrylamide gel electrophoresis, and the protein concentration was detected by nucleic acid-protein quantification instrument.
Test Methods • (1) Recombinant human IL6 protein was diluted with PBSA in 10-fold gradient starting from 5000 pg/ml, with 5 gradients in total. […]

PCT [3] = test: Second library screening for PCT detection, clone supernatants, retest with CTZ-h (Example 4); assay type: biochemical, human
Method: In order to further improve the signal-to-noise ratio and complementary activity of the luciferase dual-antibody complementary activation assay, novel complementary luciferase small subunits were prepared in this example. Large subunit-rSCFV5 fusion protein (SEQ ID NO: 87) was kept unchanged, and the small subunit sequence of the rSCFV18-RB073 fusion protein (SEQ ID NO: 89) were modified by semi-randomization. The theoretical diversity was 6912, the library capacity was 10^6, and 3,000 single clones were picked. The method of protein induction and expression was the same as that in Example 2.
Detection Methods: • (1) The concentration of large subunit-rSCFV5 fusion protein was diluted to 12.5 nM, and 15 µl was added per well; • (2) MBP-PCT fusion protein was diluted to 3.3 ng/ml with PBSAD, and 10 µl was added per well; • (3) HB2151 strain containing plasmids with different small subunit sequences were induced by IPTG at 30°C overnight, then treated with polymyxin B for 1.5h, and centrifuged to collect the supernatant, and 2.5µl supernatant was added per well; • (4) The above three components were slightly mixed, incubated at 37°C for 7 min, and Obuffer 6.37-3 containing Furimazine at a concentration of 25 µM was added, and after 3 min, the luminescence signal value was detected using a bioluminescence detector; and • (5) Clones with RLU higher than 10,000 were picked. The substrate was replaced with CTZ-h substrate for retesting (Obuffer 6.37-3 containing CTZ-h at a concentration of 25 µM was added, and after 60 s, the luminescence signal value was detected using a bioluminescence detector), and a PBSAD control was added to test the signal-to-noise ratio.

PCT [4] = test: Sensitivity and linear range for PCT detection of preferred small subunits (Example 5); assay type: biochemical, human; details: for luminescence value: normalized
Method: Detection Methods: • (1) The concentration of large subunit-rSCFV5 fusion protein was diluted with PBSA to 8.3~25nM, and 15µl was added per well; • (2) MBP-PCT fusion proteins were diluted with PBSAD in a downward gradient starting from 2.5 µg/ml, and 10 µl was added per well; • (3) The rSCFV18-small subunit mutant-containing fusion protein was diluted with PBSA to 30~180 nM, and 15 µl was added per well; • (4) The above three components were slightly mixed, incubated at 37°C for 15 min, and Obuffer 6.37-3 containing CTZ-h at a concentration of 15 µM was added, and the luminescence signal value was immediately detected using a bioluminescence detector (the luminescence value was normalized);

| Sequence | activity (luminescence signal value), 3 min (PCT [1]; 3 min after Furimazine 25 µM) | activity (luminescence signal value), 6 min (PCT [1]; 6 min after Furimazine 25 µM) | LLD (low limit of detection) [2] [pg/mL] | Signal-to-noise ratio (PCT [3]; PCT+/PCT-, MBP-PCT 3.3 ng/ml, CTZ-h) | PCT+ (PCT [3]; luminescence signal value with MBP-PCT 3.3 ng/ml, large subunit-rSCFV5 12.5 nM, CTZ-h 25 µM, 60 s) | PCT- (PCT [3]; luminescence signal value, PBSAD control without PCT, large subunit-rSCFV5 12.5 nM, CTZ-h 25 µM, 60 s) | luminescence value (PCT [4]; PCT 0.0, background) | luminescence value (PCT [4]; PCT 1 (pg/ml)) | luminescence value (PCT [4]; PCT 3 (pg/ml)) | luminescence value (PCT [4]; PCT 10 (pg/ml)) | luminescence value (PCT [4]; PCT 30 (pg/ml)) | luminescence value (PCT [4]; PCT 100 (pg/ml)) | luminescence value (PCT [4]; PCT 1000 (pg/ml)) | luminescence value (PCT [4]; PCT 10000 (pg/ml)) | luminescence value (PCT [4]; PCT 100000 (pg/ml)) | luminescence value (PCT [4]; PCT 250000 (pg/ml)) | Signal-to-noise ratio at 1000 pg/ml (PCT [4]; large subunit 8.3~25 nM, small subunit fusion 30~180 nM, CTZ-h 15 µM) |
| --- | --- | --- | --- | --- | --- | --- | --- | --- | --- | --- | --- | --- | --- | --- | --- | --- | --- |
| VEGYRLFDRKS [RB073] | 46672 | 32973 | 0.79 |  |  |  |  |  |  |  |  |  |  |  |  |  |  |
| VTGYRLFEEIL [P114, reference compound] |  |  |  | 1.9 | 1493 | 786 | 5000 | 5324 | 5403 | 5314 | 5724 | 5429 | 18939 | 99257 | 804042 | 1431884 | 3.8 |
